Laboratory results from patent US20260000781A1, “FC CONJUGATES INCLUDING AN INHIBITOR OF CD73 AND USES THEREOF” (Cidara Therapeutics, Inc., priority 2022, published 2026).
Like-named read-outs stand apart in the source and are kept apart here.

Biological target: T1, CD73 on 4T1 mouse cells (Mus musculus, UniProt Q61503)
T1 construct: host or cells: 4T1
T1 sequence (Q61503 29-551): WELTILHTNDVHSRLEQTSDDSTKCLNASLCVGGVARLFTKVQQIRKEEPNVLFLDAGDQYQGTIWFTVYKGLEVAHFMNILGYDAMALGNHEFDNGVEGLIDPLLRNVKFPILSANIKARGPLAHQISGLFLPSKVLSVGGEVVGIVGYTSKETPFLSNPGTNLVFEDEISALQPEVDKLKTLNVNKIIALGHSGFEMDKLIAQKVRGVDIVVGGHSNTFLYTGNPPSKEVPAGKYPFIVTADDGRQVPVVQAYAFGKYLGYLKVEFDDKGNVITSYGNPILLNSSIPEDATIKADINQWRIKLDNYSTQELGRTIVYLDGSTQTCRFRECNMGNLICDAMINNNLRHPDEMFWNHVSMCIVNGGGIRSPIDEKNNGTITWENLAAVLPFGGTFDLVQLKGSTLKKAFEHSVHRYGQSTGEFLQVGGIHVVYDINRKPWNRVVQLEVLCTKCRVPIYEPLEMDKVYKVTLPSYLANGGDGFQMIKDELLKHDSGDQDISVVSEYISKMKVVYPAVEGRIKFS
Assay: CD73 enzyme inhibition assay with mouse 4T1 cells (PiColorLock)
Format: cell-based
Details: 4T1 cancer cells, AMP 100 μM
Experimental: The cell-based CD73 enzyme inhibition assay was performed in a 96-well plate format using the PiColorLock phosphate assay kit in accordance with the manufacturer's instructions (Abcam cat no. 270004). 4T1 mouse cells are a model for stage IV human breast cancer (ATCC CRL-2539) and human peripheral blood mononuclear cells (PBMCs; StemCell Technologies cat no. 70025) from three different donors were assayed. 4T1 cells were washed three times with a phosphate-free CD73 buffer (Lawson et al., 2020), detached from tissue-culture flasks using a cell scraper, and seeded at 5×10^3 cells/well into 96-well tissue culture-treated plates. Human PBMCs were washed three times with phosphate-free CD73 buffer at 125×g for 10 min at room temperature and seeded at 1×10^5 cells/well into 96-well tissue culture-treated plates. Test articles were tested from 0.001 nM to 1,000 nM (4T1 cells) or 0.0001 nM to 100 nM (PBMCs) and incubated with cells for 30 min at 37° C., 5% CO2. AMP (100 μM final concentration) was added to cells and test articles, and the reaction incubated for 3 h and 24 h at 37° C., 5% CO2. The conversion of AMP to adenosine and phosphate in cell-free supernatant was quantified using the PiColorLock kit. Colorimetric detection reagent was added and the phosphate production was measured by reading the absorbance at 635 nm with the EnSpire multimode plate reader (PerkinElmer). Cells without test article (positive control) were included on each plate. Control wells without test article and cells (background) were subtracted from all wells. Percent CD73 inhibition versus inhibitor concentration was plotted using GraphPad Prism Version 8 and IC50's calculated using nonlinear regression analysis (Sigmoidal, 4 PL).

Row | IC50 (24 h, read-out: 24 h IC50) [nM] | IC50 (read-out: 3 h IC50, 3 h) [nM] | IC50 (3 h IC50 [nM], 3 h) [nM] | SMILES
1 | 114 | 8.2 | – | O=P(O)(O)COC[C@H]1O[C@@H](n2ncc3c(N4CC5(CCc6ccccc65)C4)nc(Cl)nc32)[C@H](O)[C@@H]1O [SHR170008]
2 | 85.7 | – | 6.79 | C[C@H](Nc1cc(Cl)nc2c1cnn2[C@@H]1O[C@H](COP(=O)(O)CP(=O)(O)O)[C@@H](O)[C@H]1O)c1ccccc1F [AB680]
3 | 24 | 1.67 | – | COC[C@](CO)(OC[C@H]1O[C@@H](n2ncc3c(NC4CCCC4)nc(Cl)nc32)[C@H](O)[C@@H]1O)P(=O)(O)O [OP-5244]
